Structures can show the parent of a compound that is named as a salt.
Tests used:
Conditions in all cases: 72 h
Caco-2 [1] = assay: cell viability relative to DMSO; higher = less toxic
Calu-3 [2] = assay: as above
HepG2 [3] = assay: as above
U2OS [4] = assay: as above
Vero E6 [5] = assay: as above
Caco-2 [6] = assay: relative viability EC50 (midpoint between 100% and the lowest measured viability); higher = less toxic
Calu-3 [7] = assay: as above
HepG2 [8] = assay: as above
U2OS [9] = assay: as above
Vero E6 [10] = assay: as above
Caco-2 [11] = assay: drug sensitivity score (DSS) for viability; higher = more toxic; extreme values may be limits of the assay
Calu-3 [12] = assay: as above
HepG2 [13] = assay: as above
U2OS [14] = assay: as above
Vero E6 [15] = assay: as above

| Structure (SMILES) | cell viability (Caco-2 [1]; 1 nM) [%] | cell viability (Caco-2 [1]; 10 nM) [%] | cell viability (Caco-2 [1]; 100 nM) [%] | cell viability (Caco-2 [1]; 1000 nM) [%] | cell viability (Caco-2 [1]; 10000 nM) [%] | cell viability (Calu-3 [2]; 1 nM) [%] | cell viability (Calu-3 [2]; 10 nM) [%] | cell viability (Calu-3 [2]; 100 nM) [%] | cell viability (Calu-3 [2]; 1000 nM) [%] | cell viability (Calu-3 [2]; 10000 nM) [%] | cell viability (HepG2 [3]; 1 nM) [%] | cell viability (HepG2 [3]; 10 nM) [%] | cell viability (HepG2 [3]; 100 nM) [%] | cell viability (HepG2 [3]; 1000 nM) [%] | cell viability (HepG2 [3]; 10000 nM) [%] | cell viability (U2OS [4]; 1 nM) [%] | cell viability (U2OS [4]; 10 nM) [%] | cell viability (U2OS [4]; 100 nM) [%] | cell viability (U2OS [4]; 1000 nM) [%] | cell viability (U2OS [4]; 10000 nM) [%] | cell viability (Vero E6 [5]; 1 nM) [%] | cell viability (Vero E6 [5]; 10 nM) [%] | cell viability (Vero E6 [5]; 100 nM) [%] | cell viability (Vero E6 [5]; 1000 nM) [%] | cell viability (Vero E6 [5]; 10000 nM) [%] | relative viability EC50 (Caco-2 [6]) [µM] | relative viability EC50 (Calu-3 [7]) [µM] | relative viability EC50 (HepG2 [8]) [µM] | relative viability EC50 (U2OS [9]) [µM] | relative viability EC50 (Vero E6 [10]) [µM] | drug sensitivity score (Caco-2 [11]) | drug sensitivity score (Calu-3 [12]) | drug sensitivity score (HepG2 [13]) | drug sensitivity score (U2OS [14]) | drug sensitivity score (Vero E6 [15]) |
| --- | --- | --- | --- | --- | --- | --- | --- | --- | --- | --- | --- | --- | --- | --- | --- | --- | --- | --- | --- | --- | --- | --- | --- | --- | --- | --- | --- | --- | --- | --- | --- | --- | --- | --- | --- |
| O=C(NC(=O)c1c(F)cccc1Cl)NC1c2ccccc2-c2ccccc21 [TMN-355] | 93.1 | 93.7 | 86.8 | 92.1 | 104 | 88 | 93.9 | 108 | 91.7 | 97.6 | 97.4 | 103 | 101 | 109 | 108 | 97.4 | 99.9 | 96.9 | 94.2 | 102 | 100 | 91.9 | 104 | 98.4 | 106 | > 10 | > 10 | > 10 | > 10 | > 10 | 0 | 0 | 0 | 0 | 0 |
| CN(C(=O)Cc1ccccc1)[C@H](CN1CCCC1)c1ccccc1 [N-MPPP] | 111 | 94.8 | 102 | 97.4 | 95.9 | 103 | 96.2 | 91.6 | 106 | 93.4 | 93.5 | 93.6 | 97.8 | 100 | 98 | 95 | 95.8 | 101 | 102 | 99.1 | 105 | 104 | 102 | 106 | 99.5 | > 10 | > 10 | > 10 | > 10 | > 10 | 0 | 0 | 0 | 0 | 0 |
| CNCCc1cnc[nH]1 [N-alpha-methylhistamine-dihydrochloride] | 94.5 | 104 | 92.5 | 98.2 | 102 | 101 | 97.2 | 91.5 | 109 | 94.5 | 104 | 95.9 | 103 | 87.7 | 112 | 97.4 | 105 | 101 | 102 | 98 | 99.4 | 91.6 | 96.7 | 91.5 | 97.1 | > 10 | > 10 | > 10 | > 10 | > 10 | 0 | 0 | 0 | 0 | 0 |
| CC(C)OC(=O)OCOP(=O)(CO[C@H](C)Cn1cnc2c(N)ncnc21)OCOC(=O)OC(C)C [tenofovir-disoproxil] | 96.3 | 93 | 93.8 | 97.2 | 89 | 97.1 | 104 | 97.1 | 95.4 | 80.8 | 102 | 101 | 109 | 82.2 | 44.6 | 96.2 | 101 | 92.6 | 103 | 95.8 | 102 | 94.9 | 96 | 94.3 | 96.7 | > 10 | > 10 | 1.35 | > 10 | > 10 | 0 | 1 | 5.6 | 0 | 0 |
| O=S(=O)(O)c1ccc(O)cc1 [4-phenolsulfonic-acid] | 102 | 101 | 98.4 | 103 | 98.4 | 102 | 103 | 104 | 95.1 | 97.1 | 104 | 92.3 | 116 | 105 | 97.8 | 100 | 104 | 97 | 97.6 | 101 | 100 | 95.7 | 92.6 | 100 | 94.5 | > 10 | > 10 | > 10 | > 10 | > 10 | 0 | 0 | 0 | 0 | 0 |
| COc1cc2c(cc1OC)CN(C(=O)[C@@H](NCc1ccncc1)C(C)(C)C)CC2 [TCS-OX2-29] | 96.9 | 95.2 | 97.3 | 99.2 | 91.1 | 114 | 88.9 | 103 | 98.6 | 91.7 | 101 | 93.1 | 103 | 94.3 | 102 | 94.6 | 100 | 92.6 | 98.3 | 99.7 | 100 | 91.9 | 96.8 | 93.9 | 96.9 | > 10 | > 10 | > 10 | > 10 | > 10 | 0 | 0 | 0 | 0 | 0 |
| CC(=O)OCC1=C(C(=O)O)N2C(=O)[C@@H](NC(=O)CS/C(=N/C(C)C)NC(C)C)[C@H]2SC1 [cefathiamidine] | 97.9 | 96.5 | 113 | 107 | 96.6 | 97.3 | 107 | 107 | 108 | 102 | 94.6 | 89.3 | 96.8 | 98.1 | 105 | 94.3 | 94.3 | 97.9 | 98.8 | 102 | 99.7 | 101 | 95.1 | 102 | 109 | > 10 | > 10 | > 10 | > 10 | > 10 | 0 | 0 | 0 | 0 | 0 |
